Earlier results, collected in patent publication US20110223244A1, “ALCOHOL RESISTANT ENTERIC PHARMACEUTICAL COMPOSITIONS” (priority 2010, published 2011).
Structures can show the parent of a compound that is named as a salt.

Conditions: yields 1-(2-thienyl)carbinol, naphthol and substituted naphthols

CNCC[C@H](Oc1cccc2ccccc12)c1cccs1 [duloxetine HCl]
stability in aqueous HCl: rapidly undergoes solvolysis and rearrangement
